Data on six compounds can be found in US5541161A, “Stabilized sulfonate, sulfate, phosphonate and phosphate derivatives of hirudin” (Merrell Pharmaceuticals Inc., priority 1993, dated 1996).

The target of the test is thrombin (Homo sapiens, UniProt P00734). Nature of the test: Fibrin-Clot Assay. The class given is biochemical.
Where [1] appears, read: read-out: IC50 Fibrin-Clot Assay.
Where [2] appears, read: read-out: IC50 Fibrin-Clot Assay (class symbol).

Read-outs that look alike come from different tables or passages of the source. Numbered stars: 1 amine (or outer) side, 2 acyl side, 3 side chain; on linkers, the order of the positions; unused ones are H or OH. Suc = O=C(CCC(=O)[*:2])[*:1]; Pnh(SO3) = not defined here A value given as a limit tells only on which side of the number the result lay.

The IC50 is the point on the concentration scale where inhibition reaches its midpoint. Consider `CC[C@H](C)[C@H](NC(=O)[C@@H]1CCCN1C(=O)[C@H](CCC(=O)O)NC(=O)[C@H](Cc1ccc(OS(=O)(=O)O)cc1)NC(=O)CCC(=O)O)C(=O)N1CCC[C@H]1C(=O)N[C@@H](CCC(=O)O)C(=O)N[C@@H](CCC(=O)O)C(=O)N[C@@H](C)C(=O)N[C@@H](Cc1ccc(NS(=O)(=O)O)cc1)C(=O)N[C@H](CCC(=O)O)C(=O)O` [Example 2, Suc-TVr(SO3 H)-Glu-Pro-Ile-Pro-Glu-Glu-Ala-Phe(pNHSO3 H)-D-Glu-OH], for which the concentration for half-maximal inhibition (IC50) is 15 µM under setting [1] and less than 25 µM under setting [2]. `CC[C@H](C)[C@H](NC(=O)[C@@H]1CCCN1C(=O)[C@H](CCC(=O)O)NC(=O)[C@H](Cc1ccc(NS(=O)(=O)O)cc1)NC(=O)CCC(=O)O)C(=O)N1CCC[C@H]1C(=O)N[C@@H](CCC(=O)O)C(=O)N[C@@H](CCC(=O)O)C(=O)N[C@@H](C)C(=O)N[C@@H](CC1CCCCC1)C(=O)N[C@H](CCC(=O)O)C(=O)O` [Example 4, Suc-Phe(pNHSO3 H)-Glu-Pro-Ile-Pro-Glu-Glu-Ala-Cha-D-Glu-OH]: the IC50 by setting is: under setting [1], 13 µM; under setting [2], less than 25 µM.

For the compound `CC[C@H](C)[C@H](NC(=O)[C@@H]1CCCN1C(=O)[C@H](COS(=O)(=O)O)NC(=O)[C@H](Cc1ccc(O)cc1)NC(=O)CCC(=O)O)C(=O)N1CCC[C@H]1C(=O)N[C@@H](COS(=O)(=O)O)C(=O)N[C@@H](COS(=O)(=O)O)C(=O)N[C@@H](C)C(=O)N[C@@H](CC1CCCCC1)C(=O)N[C@@H](COS(=O)(=O)O)C(=O)O` [Example 8, Suc-Tyr-Ser(SO3 H)-Pro-Ile-Pro-Ser(SO3 H)-Ser(SO3 H)-Ala-Cha-Ser(SO3 H)-OH], the IC50 is, setting by setting: under setting [1], 0.21 µM; under setting [2], less than 5 µM. In the case of “Suc-Tyr(SO3 H)-Glu-Pro-Ile-Pro-Glu-Glu-Ala-Cha-D-Glu-OH [Example 5]”, the IC50 under setting [1] stood at 1.7 µM and the IC50 under setting [2] was less than 5 µM. With “Suc-Tyr-Glu-Pro-Ile-Pro-Glu-Glu-Phe(pNHSO3 H)-D-Glu-OH [Example 3]”, the IC50 under setting [1] was found to be 0.12 µM. For the compound “Suc-Tyr-Pro-Ile-Pro-Glu-Glu-Ala-Pnh(SO3)-D-Glu-OH (Suc-YPIPEEA-{Pnh(SO3)-dE-OH}; reading uncertain; also: printed as Suc-Tyr-Pro-Ile-Pro-Glu-Glu-Ala-Pnh(SO3)-D-Glu-OH) [Example 1]”, the IC50 reads like this: under setting [1], 2.5 µM; under setting [2], less than 5 µM.
